Measurements reported in ChEMBL document CHEMBL1127976, “Synthesis and anti-HCMV activity of 9-[[(ethoxyhydroxyphosphinyl)methoxy]methoxy]guanine, an isostere of PMEG monoethyl ester” (Bioorg Med Chem Lett, 1994).
Converted amounts (≈) assume the structure as drawn.

Tests used:
HEL 299 = assay: Compound was tested for its cytotoxicity against human embryonic lung fibroblast cells (HEL 299) by MTT dye reduction assay; format: functional
Human betaherpesvirus 5 [1] = assay: Concentration of compound required to inhibit 50% of HCMV strain AD-169 induced cytopathic effect; format: functional, organism-based
Human betaherpesvirus 5 [2] = assay: Concentration of compound required to inhibit 50% of HCMV strain Davis induced cytopathic effect; format: functional, organism-based
[3] = Therapeutic index measured as ratio of […]; conditions: human; read-out: Therapeutic index
[4] = Therapeutic index measured as ratio of EC50 for Davis/CC50 for HEL 299; conditions: human; read-out: Therapeutic index

Row | Compound | CC50 (HEL 299) [µg/mL] | EC50 (Human betaherpesvirus 5 [1]) [µg/mL] | EC50 (Human betaherpesvirus 5 [2]) [µg/mL] | selectivity ratio [3] | selectivity ratio [4]
1 | CCOP(=O)(O)COCOn1cnc2c(O)nc(N)nc21 | > 400 | 1.8 (≈ 5.64 µM) | 0.6 (≈ 1.88 µM) | > 200 | > 700
2 | Nc1nc2c(ncn2COC(CO)CO)c(=O)[nH]1 [GANCICLOVIR] | > 400 | 1.9 (≈ 7.44 µM) | 0.8 (≈ 3.13 µM) | > 200 | > 500
